Consider 1 compound from ChEMBL document CHEMBL2440114, “Methanolysis of triterpenoid saponin from Ardisia gigantifolia stapf. and structure-activity relationship study against cancer cells” (Bioorg Med Chem Lett, 2013).

Test [1] concerns Bel-7402. Nature of the test: Cell cycle arrest in human Bel7402 cells assessed as accumulation in G2/M phase (reference value: 43.75+/- 1.1 %). The format is functional.
Test [2] relates to Bel-7402. The test is described as follows: Cell cycle arrest in human Bel7402 cells assessed as accumulation in S phase (reference value: 18.65+/- 0.5 %). It counts as functional.
For test [3], the system named is Bel-7402. The test is described as follows: Cell cycle arrest in human Bel7402 cells assessed as accumulation in G1 phase (reference value: 37.6+/- 1.4 %). It counts as functional.
For test [4], the system named is Bel-7402. Nature of the test: Antiproliferative activity against human Bel7402 cells after 12 to 72 hrs by MTT assay. It counts as functional, cell-based.
Test [5] relates to Bel-7402. The test is described as follows: Antiproliferative activity against human Bel7402 cells at 0.5 to 20 uM by MTT assay. The format is functional, cell-based. The following applies: TDE = time-dependent effect. Background: Tetrazolium dyes change colour on reduction, which living cells bring about.
For test [6], the system named is HCT-8. The test is described as follows: Antiproliferative activity against human HCT8 cells by MTT assay. It counts as functional, cell-based.
Test [7] deals with Bel-7402. Nature of the test: Antiproliferative activity against human Bel7402 cells by MTT assay. It counts as functional, cell-based.
The subject of test [8] is A549. The test is described as follows: Antiproliferative activity against human A549 cells by MTT assay. It counts as functional, cell-based.

As usually defined, the IC50 is the concentration needed to halve the response being measured. Low readings indicate inhibition by little substance, high ones a need for much substance.

A value given as a limit tells only on which side of the number the result lay.

As for `C[C@@H]1O[C@@H](O[C@H]2[C@H](O)[C@@H](CO)O[C@@H](O[C@H]3CO[C@@H](O[C@H]4CC[C@]5(C)[C@H]6CC[C@]78OC[C@@]9(CCC(C)(C)C[C@H]97)[C@H](O)C[C@@]8(C)[C@]6(C)CC[C@H]5C4(C)C)[C@H](O[C@@H]4O[C@H](CO)[C@@H](O)[C@H](O)[C@H]4O)[C@H]3O)[C@@H]2O[C@@H]2OC[C@@H](O)[C@H](O)[C@H]2O)[C@H](O)[C@H](O)[C@H]1O`, the Activity in test [1] is 48.08%; in test [2], 18.61%; in test [3], 33.31%; in test [4] it was “Dose-dependent effect”; in test [5] it was “tde”. Also, the 50% inhibitory concentration (IC50) in test [6] was above 100 µM; in test [7] it was 860 nM; in test [8], 51.8 µM.
